From ChEMBL document CHEMBL1208720, “N-Benzylsalicylthioamides as novel compounds with promising antimycotic activity” (2010)
≈ marks a conversion by molar mass, not a printed value.

Tests used:
Type in all cases: functional
Candida albicans [1] = experiment: Antifungal activity against Candida albicans ATCC 44859 after 24 hrs by broth microdilution assay; details: for MIC: Candida albicans, ATCC 44859, 24 h
Candida albicans [2] = experiment: Antifungal activity against Candida albicans ATCC 44859 after 48 hrs by broth microdilution assay; details: for MIC: Candida albicans, ATCC 44859, 48 h
Candida tropicalis [3] = experiment: Antifungal activity against Candida tropicalis 159 after 24 hrs by broth microdilution assay; details: for MIC: Candida tropicalis, 159, 24 h
Candida tropicalis [4] = experiment: Antifungal activity against Candida tropicalis 159 after 48 hrs by broth microdilution assay; details: for MIC: Candida tropicalis, 159, 48 h
Pichia kudriavzevii [5] = experiment: Antifungal activity against Candida krusei E28 after 24 hrs by broth microdilution assay; details: for MIC: Pichia kudriavzevii, E28, 24 h
Pichia kudriavzevii [6] = experiment: Antifungal activity against Candida krusei E28 after 48 hrs by broth microdilution assay; details: for MIC: Pichia kudriavzevii, E28, 48 h
Nakaseomyces glabratus [7] = experiment: Antifungal activity against Candida glabrata 20/I after 24 hrs by broth microdilution assay; details: for MIC: Nakaseomyces glabratus, 20/I, 24 h
Nakaseomyces glabratus [8] = experiment: Antifungal activity against Candida glabrata 20/I after 48 hrs by broth microdilution assay; details: for MIC: Nakaseomyces glabratus, 20/I, 48 h
Trichosporon asahii [9] = experiment: Antifungal activity against Trichosporon asahii 1188 after 24 hrs by broth microdilution assay; details: for MIC: Trichosporon asahii, 1188, 24 h
Trichosporon asahii [10] = experiment: Antifungal activity against Trichosporon asahii 1188 after 48 hrs by broth microdilution assay; details: for MIC: Trichosporon asahii, 1188, 48 h
Aspergillus fumigatus [11] = experiment: Antifungal activity against Aspergillus fumigatus 231 after 24 hrs by broth microdilution assay; details: for MIC: Aspergillus fumigatus, 231, 24 h
Aspergillus fumigatus [12] = experiment: Antifungal activity against Aspergillus fumigatus 231 after 48 hrs by broth microdilution assay; details: for MIC: Aspergillus fumigatus, 231, 48 h
Lichtheimia corymbifera [13] = experiment: Antifungal activity against Absidia corymbifera 272 after 24 hrs by broth microdilution assay; details: for MIC: Lichtheimia corymbifera, 272, 24 h
Lichtheimia corymbifera [14] = experiment: Antifungal activity against Absidia corymbifera 272 after 48 hrs by broth microdilution assay; details: for MIC: Lichtheimia corymbifera, 272, 48 h
[15] = tested on: Trichophyton mentagrophytes; experiment: Antifungal activity against Trichophyton mentagrophytes 445 after 72 hrs by broth microdilution assay; details: for MIC: Trichophyton mentagrophytes, 445, 72 h
[16] = tested on: Trichophyton mentagrophytes; experiment: Antifungal activity against Trichophyton mentagrophytes 445 after 120 hrs by broth microdilution assay; details: for MIC: Trichophyton mentagrophytes, 445, 120 h

SMILES | MIC (Candida albicans [1]) [µM] | MIC (Candida albicans [2]) [µM] | MIC (Candida tropicalis [3]) [µM] | MIC (Candida tropicalis [4]) [µM] | MIC (Pichia kudriavzevii [5]) [µM] | MIC (Pichia kudriavzevii [6]) [µM] | MIC (Nakaseomyces glabratus [7]) [µM] | MIC (Nakaseomyces glabratus [8]) [µM] | MIC (Trichosporon asahii [9]) [µM] | MIC (Trichosporon asahii [10]) [µM] | MIC (Aspergillus fumigatus [11]) [µM] | MIC (Aspergillus fumigatus [12]) [µM] | MIC (Lichtheimia corymbifera [13]) [µM] | MIC (Lichtheimia corymbifera [14]) [µM] | MIC [15] [µM] | MIC [16] [µM] | other results
Cc1ccc(C(=S)NCc2ccc(Cl)cc2)c(O)c1 | > 500 | > 500 | > 500 | > 500 | > 500 | > 500 | > 500 | > 500 | > 500 | > 500 | > 500 | > 500 | > 500 | > 500 | > 500 | > 500 | –
COc1ccc(C(=S)NCc2cccc(Cl)c2)c(O)c1 | 125 (≈ 38.5 µg/mL) | 250 (≈ 77 µg/mL) | 125 (≈ 38.5 µg/mL) | 250 (≈ 77 µg/mL) | 125 (≈ 38.5 µg/mL) | 125 (≈ 38.5 µg/mL) | 250 (≈ 77 µg/mL) | 500 (≈ 154 µg/mL) | 31.2 (≈ 9.62 µg/mL) | 62.5 (≈ 19.2 µg/mL) | 62.5 (≈ 19.2 µg/mL) | 125 (≈ 38.5 µg/mL) | 7.81 (≈ 2.4 µg/mL) | 7.81 (≈ 2.4 µg/mL) | 15.6 (≈ 4.81 µg/mL) | 15.6 (≈ 4.81 µg/mL) | –
Cc1ccc(C(=S)NCc2ccc(C(C)(C)C)cc2)c(O)c1 | > 500 | > 500 | > 500 | > 500 | > 500 | > 500 | > 500 | > 500 | > 500 | > 500 | > 500 | > 500 | > 500 | > 500 | > 500 | > 500 | –
Cc1ccc(CNC(=S)c2cc([N+](=O)[O-])ccc2O)cc1 | 500 (≈ 151 µg/mL) | > 500 | > 500 | > 500 | > 500 | > 500 | > 500 | > 500 | 500 (≈ 151 µg/mL) | 500 (≈ 151 µg/mL) | 500 (≈ 151 µg/mL) | 500 (≈ 151 µg/mL) | 500 (≈ 151 µg/mL) | 500 (≈ 151 µg/mL) | 62.5 (≈ 18.9 µg/mL) | 62.5 (≈ 18.9 µg/mL) | –
COc1ccc(O)c(C(=S)NCc2ccccc2)c1 | – | – | – | – | – | – | – | – | – | – | – | – | – | – | – | – | logMIC (Candida albicans [1]): 2.1; logMIC (Candida albicans [2]): 2.4; logMIC (Candida tropicalis [3]): 2.4; logMIC (Candida tropicalis [4]): 2.4; logMIC (Pichia kudriavzevii [5]): 2.4; logMIC (Pichia kudriavzevii [6]): 2.4; logMIC (Nakaseomyces glabratus [7]): 2.4; logMIC (Nakaseomyces glabratus [8]): 2.4; logMIC (Trichosporon asahii [9]): 2.1; logMIC (Trichosporon asahii [10]): 2.4; logMIC (Aspergillus fumigatus [11]): 2.4; logMIC (Aspergillus fumigatus [12]): 2.4; logMIC (Lichtheimia corymbifera [13]): 1.49; logMIC (Lichtheimia corymbifera [14]): 2.1; logMIC [15]: 1.8; logMIC [16]: 1.8

Further lines, with some results ahead:

MIC (Candida albicans [1]) [µM] | MIC (Candida albicans [2]) [µM] | MIC (Candida tropicalis [3]) [µM] | MIC (Candida tropicalis [4]) [µM] | MIC (Pichia kudriavzevii [5]) [µM] | MIC (Pichia kudriavzevii [6]) [µM] | MIC (Nakaseomyces glabratus [7]) [µM] | MIC (Nakaseomyces glabratus [8]) [µM] | MIC (Trichosporon asahii [9]) [µM] | MIC (Trichosporon asahii [10]) [µM] | MIC (Aspergillus fumigatus [11]) [µM] | MIC (Aspergillus fumigatus [12]) [µM] | MIC (Lichtheimia corymbifera [13]) [µM] | MIC (Lichtheimia corymbifera [14]) [µM] | MIC [15] [µM] | MIC [16] [µM] | SMILES | other results
15.6 (≈ 6.27 µg/mL) | 31.2 (≈ 12.5 µg/mL) | 31.2 (≈ 12.5 µg/mL) | 31.2 (≈ 12.5 µg/mL) | 3.9 (≈ 1.56 µg/mL) | 15.6 (≈ 6.27 µg/mL) | 31.2 (≈ 12.5 µg/mL) | 125 (≈ 50.1 µg/mL) | 3.9 (≈ 1.56 µg/mL) | 7.81 (≈ 3.13 µg/mL) | 15.6 (≈ 6.27 µg/mL) | 15.6 (≈ 6.27 µg/mL) | 3.9 (≈ 1.56 µg/mL) | 3.9 (≈ 1.56 µg/mL) | 15.6 (≈ 6.27 µg/mL) | 31.2 (≈ 12.5 µg/mL) | Oc1ccc(Br)cc1C(=S)NCc1ccc(Br)cc1 | –
62.5 (≈ 16.1 µg/mL) | 125 (≈ 32.2 µg/mL) | 125 (≈ 32.2 µg/mL) | 125 (≈ 32.2 µg/mL) | 62.5 (≈ 16.1 µg/mL) | 125 (≈ 32.2 µg/mL) | 125 (≈ 32.2 µg/mL) | 125 (≈ 32.2 µg/mL) | 31.2 (≈ 8.04 µg/mL) | 62.5 (≈ 16.1 µg/mL) | 125 (≈ 32.2 µg/mL) | 250 (≈ 64.3 µg/mL) | 15.6 (≈ 4.02 µg/mL) | 31.2 (≈ 8.04 µg/mL) | 31.2 (≈ 8.04 µg/mL) | 15.6 (≈ 4.02 µg/mL) | Cc1ccc(CNC(=S)c2ccccc2O)cc1 | –
31.2 (≈ 10.8 µg/mL) | 31.2 (≈ 10.8 µg/mL) | 31.2 (≈ 10.8 µg/mL) | 62.5 (≈ 21.7 µg/mL) | 3.9 (≈ 1.35 µg/mL) | 15.6 (≈ 5.41 µg/mL) | 31.2 (≈ 10.8 µg/mL) | 31.2 (≈ 10.8 µg/mL) | 3.9 (≈ 1.35 µg/mL) | 7.81 (≈ 2.71 µg/mL) | 3.9 (≈ 1.35 µg/mL) | 15.6 (≈ 5.41 µg/mL) | 3.9 (≈ 1.35 µg/mL) | 7.81 (≈ 2.71 µg/mL) | 0.98 (≈ 0.34 µg/mL) | 0.98 (≈ 0.34 µg/mL) | Oc1ccc(Cl)cc1C(=S)NCc1ccc(Cl)c(Cl)c1 | –
